Laboratory results: ChEMBL document CHEMBL3885861, “Open TG-GATES”

Species on record: Rattus norvegicus
Assay: Open TG-GATES - Regimen: Daily Repeat
Assay type: toxicity, organism-based, Sprague-Dawley
Set-up: regimen Daily Repeat, gender Male, age 6 weeks
Settings: in vivo, po, route gavage; for Bas / Eos / Fbg / Hb / Ht / Lym / MCV / Mono / Neu / PT / Plat / RBC / Ret / WBC / APTT / MCH / MCHC: tissue Blood; for KIDNEY_L / KIDNEY_R / KIDNEY_TOTAL: tissue Kidney; for LIVER: tissue Liver; for ALP / ALT / AST / BUN / CRE / DBIL / GLC / IP / K / LDH / Na / PL / RALB / TBIL / TC / TG / TP / gamma-GTP / Ca: tissue Plasma
[1] = 300 mg/kg, 72 h, dose level Middle, time 3 day
[2] = 300 mg/kg, […], dose level Middle, time 7 day
[3] = 300 mg/kg, […], dose level Middle, time 14 day
[4] = 300 mg/kg, […], dose level Middle, time 28 day
[5] = 1000 mg/kg, 72 h, dose level High, time 3 day
[6] = 1000 mg/kg, […], dose level High, time 7 day
[7] = 1000 mg/kg, […], dose level High, time 14 day
[8] = 1000 mg/kg, […], dose level High, time 28 day

O=C(O)c1cn(C2CC2)c2cc(N3CCNCC3)c(F)cc2c1=O [CIPROFLOXACIN]
Bas [1]: 0% | Eos [1]: 1% | Fbg [1]: 217 mg/dL | Hb [1]: 13 g/dL | Ht [1]: 38.7% | Lym [1]: 78.4% | MCV [1]: 63.5 fL | Mono [1]: 6% | Neu [1]: 14.4% | PT [1]: 12.4 s | Plat [1]: 103.1 x10_4/uL | RBC [1]: 609 x10_4/ul | Ret [1]: 6.9% | WBC [1]: 87 x10_2/uL | KIDNEY_L [1]: 0.9 g | KIDNEY_R [1]: 0.9 g | KIDNEY_TOTAL [1]: 1.8 g | LIVER [1]: 8.6 g | ALP [1]: 998 IU/L | ALT [1]: 37.8 IU/L | AST [1]: 68.4 IU/L | BUN [1]: 16.4 mg/dL | CRE [1]: 0.5 mg/dL | DBIL [1]: 0.014 mg/dL | GLC [1]: 182 mg/dL | IP [1]: 9.1 mg/dL | K [1]: 5 meq/L | LDH [1]: 81 IU/L | Na [1]: 140.4 meq/L | PL [1]: 148.8 mg/dL | RALB [1]: 3.8 g/dL | TBIL [1]: 0.3 mg/dL | TC [1]: 91 mg/dL | TG [1]: 49.4 mg/dL | TP [1]: 5.8 g/dL | gamma-GTP [1]: 2.2 IU/L | TERMINAL_BW [2]: 237.8 g | TERMINAL_BW [3]: 282.8 g | TERMINAL_BW [4]: 378.4 g | APTT [2]: 16 s | Bas [2]: 0% | Eos [2]: 0.6% | Fbg [2]: 218.5 mg/dL | Hb [2]: 13.2 g/dL | Ht [2]: 39.7% | Lym [2]: 80.4% | MCH [2]: 21.4 pg | MCHC [2]: 33.4% | MCV [2]: 64 fL | Mono [2]: 4.8% | Neu [2]: 14% | PT [2]: 12.4 s | Plat [2]: 98.1 x10_4/uL | RBC [2]: 620.2 x10_4/ul | Ret [2]: 6.7% | WBC [2]: 128.7 x10_2/uL | APTT [3]: 16.4 s | Bas [3]: 0% | Eos [3]: 1% | Fbg [3]: 251 mg/dL | Hb [3]: 13.9 g/dL | Ht [3]: 41.6% | Lym [3]: 83.4% | MCH [3]: 20.4 pg | MCHC [3]: 33.4% | MCV [3]: 61.2 fL | Mono [3]: 5% | Neu [3]: 10.6% | PT [3]: 10 s | Plat [3]: 117.4 x10_4/uL | RBC [3]: 680.8 x10_4/ul | Ret [3]: 6.4% | WBC [3]: 162 x10_2/uL | APTT [4]: 16.7 s | Bas [4]: 0% | Eos [4]: 0.8% | Fbg [4]: 245.2 mg/dL | Ht [4]: 44% | Lym [4]: 83.2% | MCH [4]: 19.3 pg | MCHC [4]: 33.2% | MCV [4]: 58.1 fL | Mono [4]: 5% | Neu [4]: 10.8% | Plat [4]: 100 x10_4/uL | RBC [4]: 756.8 x10_4/ul | Ret [4]: 3.2% | WBC [4]: 123.6 x10_2/uL | KIDNEY_L [2]: 1 g | KIDNEY_R [2]: 1 g | KIDNEY_TOTAL [2]: 2.1 g | KIDNEY_L [3]: 1.1 g | KIDNEY_R [3]: 1.1 g | KIDNEY_TOTAL [3]: 2.3 g | KIDNEY_L [4]: 1.3 g | KIDNEY_R [4]: 1.3 g | KIDNEY_TOTAL [4]: 2.6 g | LIVER [2]: 10.8 g | LIVER [3]: 12.3 g | LIVER [4]: 16 g | ALP [2]: 917.6 IU/L | AST [2]: 66.4 IU/L | BUN [2]: 20 mg/dL | CRE [2]: 0.5 mg/dL | Ca [2]: 11.4 mg/dL | DBIL [2]: 0.004 mg/dL | GLC [2]: 173.8 mg/dL | IP [2]: 9 mg/dL | K [2]: 4.9 meq/L | LDH [2]: 65.2 IU/L | Na [2]: 141.6 meq/L | PL [2]: 160.8 mg/dL | RALB [2]: 4 g/dL | TBIL [2]: 0.3 mg/dL | TC [2]: 90 mg/dL | TG [2]: 86.6 mg/dL | TP [2]: 5.8 g/dL | gamma-GTP [2]: 1.2 IU/L | ALP [3]: 973.2 IU/L | ALT [3]: 31.6 IU/L | AST [3]: 59.2 IU/L | BUN [3]: 20.4 mg/dL | CRE [3]: 0.6 mg/dL | Ca [3]: 11 mg/dL | DBIL [3]: 0.008 mg/dL | GLC [3]: 184.8 mg/dL | IP [3]: 7.8 mg/dL | K [3]: 4.8 meq/L | LDH [3]: 83.4 IU/L | Na [3]: 139 meq/L | PL [3]: 160 mg/dL | RALB [3]: 4 g/dL | TBIL [3]: 0.3 mg/dL | TG [3]: 105.8 mg/dL | TP [3]: 6 g/dL | gamma-GTP [3]: 2.8 IU/L | ALP [4]: 655 IU/L | ALT [4]: 33.8 IU/L | AST [4]: 59.4 IU/L | BUN [4]: 19.8 mg/dL | CRE [4]: 0.4 mg/dL | DBIL [4]: 0.004 mg/dL | GLC [4]: 180.8 mg/dL | IP [4]: 7.7 mg/dL | K [4]: 4.4 meq/L | LDH [4]: 102.2 IU/L | Na [4]: 140.6 meq/L | PL [4]: 172 mg/dL | RALB [4]: 4.1 g/dL | TBIL [4]: 0.3 mg/dL | TC [4]: 82.6 mg/dL | TG [4]: 184.6 mg/dL | TP [4]: 6.6 g/dL | gamma-GTP [4]: 1 IU/L | TERMINAL_BW [5]: 203.7 g | APTT [5]: 18.7 s | Bas [5]: 0% | Eos [5]: 1% | Fbg [5]: 222 mg/dL | Hb [5]: 12.8 g/dL | Ht [5]: 38.4% | Lym [5]: 83.2% | MCH [5]: 21.2 pg | MCHC [5]: 33.4% | Mono [5]: 6% | Neu [5]: 10% | PT [5]: 12.3 s | Plat [5]: 101.1 x10_4/uL | RBC [5]: 603.4 x10_4/ul | Ret [5]: 6% | WBC [5]: 121.3 x10_2/uL | KIDNEY_L [5]: 0.9 g | KIDNEY_R [5]: 1 g | KIDNEY_TOTAL [5]: 1.9 g | LIVER [5]: 9.6 g | ALP [5]: 962.6 IU/L | ALT [5]: 39 IU/L | AST [5]: 65.2 IU/L | BUN [5]: 16.8 mg/dL | CRE [5]: 0.5 mg/dL | Ca [5]: 11.2 mg/dL | DBIL [5]: 0.004 mg/dL | GLC [5]: 183.2 mg/dL | IP [5]: 9.4 mg/dL | K [5]: 4.9 meq/L | LDH [5]: 143.2 IU/L | Na [5]: 140.6 meq/L | PL [5]: 139.2 mg/dL | RALB [5]: 3.8 g/dL | TBIL [5]: 0.2 mg/dL | TC [5]: 86 mg/dL | TP [5]: 5.7 g/dL | gamma-GTP [5]: 1.4 IU/L | TERMINAL_BW [6]: 228.1 g | TERMINAL_BW [7]: 267.6 g | TERMINAL_BW [8]: 381.8 g | APTT [6]: 16 s | Bas [6]: 0% | Eos [6]: 0.8% | Fbg [6]: 231.8 mg/dL | Hb [6]: 13.5 g/dL | Ht [6]: 40.4% | Lym [6]: 81.2% | MCH [6]: 21.1 pg | MCHC [6]: 33.5% | MCV [6]: 63 fL | Mono [6]: 5.4% | Neu [6]: 12.8% | Plat [6]: 106.3 x10_4/uL | RBC [6]: 640.8 x10_4/ul | Ret [6]: 6.4% | WBC [6]: 154.8 x10_2/uL | APTT [7]: 16.2 s | Bas [7]: 0% | Eos [7]: 0.8% | Fbg [7]: 255.2 mg/dL | Hb [7]: 14.3 g/dL | Ht [7]: 43% | Lym [7]: 82.8% | MCH [7]: 20.4 pg | MCHC [7]: 33.2% | MCV [7]: 61.6 fL | Mono [7]: 4.4% | Neu [7]: 12.4% | PT [7]: 10.2 s | Plat [7]: 97.3 x10_4/uL | RBC [7]: 699.2 x10_4/ul | Ret [7]: 5.7% | WBC [7]: 139.4 x10_2/uL | Bas [8]: 0% | Eos [8]: 1% | Fbg [8]: 248 mg/dL | Hb [8]: 14.7 g/dL | Lym [8]: 85% | MCH [8]: 19.5 pg | MCHC [8]: 33.5% | MCV [8]: 58.2 fL | Mono [8]: 3.4% | Neu [8]: 10.8% | Plat [8]: 110.7 x10_4/uL | RBC [8]: 757.8 x10_4/ul | Ret [8]: 3.5% | WBC [8]: 156.8 x10_2/uL | KIDNEY_L [6]: 1 g | KIDNEY_R [6]: 1 g | KIDNEY_TOTAL [6]: 2 g | KIDNEY_L [7]: 1.1 g | KIDNEY_R [7]: 1.1 g | KIDNEY_TOTAL [7]: 2.2 g | KIDNEY_L [8]: 1.4 g | KIDNEY_R [8]: 1.4 g | KIDNEY_TOTAL [8]: 2.8 g | LIVER [6]: 10.5 g | LIVER [7]: 11 g | LIVER [8]: 15 g | ALP [6]: 850.4 IU/L | AST [6]: 64 IU/L | BUN [6]: 21.2 mg/dL | CRE [6]: 0.5 mg/dL | Ca [6]: 11.5 mg/dL | DBIL [6]: 0 mg/dL | GLC [6]: 182.4 mg/dL | IP [6]: 9.6 mg/dL | K [6]: 5.1 meq/L | LDH [6]: 96.8 IU/L | Na [6]: 141 meq/L | PL [6]: 158.8 mg/dL | RALB [6]: 3.8 g/dL | TBIL [6]: 0.2 mg/dL | TC [6]: 86 mg/dL | TG [6]: 90.2 mg/dL | TP [6]: 5.8 g/dL | gamma-GTP [6]: 1.6 IU/L | ALP [7]: 871.8 IU/L | AST [7]: 61.4 IU/L | BUN [7]: 22.8 mg/dL | CRE [7]: 0.6 mg/dL | DBIL [7]: 0.03 mg/dL | GLC [7]: 182.6 mg/dL | IP [7]: 7.8 mg/dL | K [7]: 4.8 meq/L | LDH [7]: 171.8 IU/L | Na [7]: 139.2 meq/L | PL [7]: 169 mg/dL | RALB [7]: 4 g/dL | TBIL [7]: 0.2 mg/dL | TC [7]: 92 mg/dL | TP [7]: 6.1 g/dL | gamma-GTP [7]: 1.8 IU/L | ALP [8]: 690 IU/L | ALT [8]: 32.4 IU/L | AST [8]: 51.8 IU/L | BUN [8]: 19.4 mg/dL | CRE [8]: 0.4 mg/dL | Ca [8]: 11.2 mg/dL | DBIL [8]: 0.022 mg/dL | GLC [8]: 180.6 mg/dL | IP [8]: 7.5 mg/dL | K [8]: 4.4 meq/L | LDH [8]: 160.6 IU/L | Na [8]: 140.2 meq/L | PL [8]: 173 mg/dL | RALB [8]: 4.1 g/dL | TBIL [8]: 0.2 mg/dL | TC [8]: 96 mg/dL | TG [8]: 102 mg/dL | TP [8]: 6.6 g/dL | gamma-GTP [8]: 2.4 IU/L
